Source: ChEMBL document CHEMBL1158713, “Anthecotulide: purification, analytical data, absence from chamomile preparations, stability and reactivity, and anti-infective testing” (J Nat Prod, 2005)
Calls of active or inactive are those of the source.

Columns and labels:
Assay type in all cases: functional, organism-based
Enterococcus faecium = assay: Antimicrobial activity against vancomycin-resistant Enterococcus faecium at < 10 ug/ml
Staphylococcus aureus [1] = assay: Antimicrobial activity against Staphylococcus aureus at < 10 ug/ml
Pseudomonas aeruginosa = assay: Antimicrobial activity against Pseudomonas aeruginosa at < 10 ug/ml
Staphylococcus aureus [2] = assay: Antimicrobial activity against methicillin-resistant Staphylococcus aureus at < 10 ug/ml
Escherichia coli = assay: Antimicrobial activity against Escherichia coli at < 10 ug/ml
Enterococcus faecalis = assay: Antimicrobial activity against Enterococcus faecalis at < 10 ug/ml

Measured: Activity

C=C1C(=O)OCC1C/C=C(\C)CC(=O)C=C(C)C (stereo unspecified)
inactive: Enterococcus faecium | Staphylococcus aureus [1] | Pseudomonas aeruginosa | Staphylococcus aureus [2] | Escherichia coli | Enterococcus faecalis
